Measured values published in patent publication US12077503B2, “Substituted cyclic amides and their use as herbicides” (FMC CORPORATION, priority 2015, dated 2024).

Experiments:
Type in all cases: in vivo
[1] = test system: foxtail, giant (giant foxtail, Setaria faberii); test: Test C postemergence; details: scale 0 to 100, 0 no effect, 100 complete control
From the text: (§1) Seeds of plant species selected from blackgrass (Alopecurus myosuroides), ryegrass, Italian (Italian ryegrass, Lolium multiflorum), wheat (winter wheat, Triticum aestivum), Galium (catchweed bedstraw, Galium aparine), corn (Zea mays), crabgrass, large (large crabgrass, Digitaria sanguinalis), foxtail, giant (giant foxtail, Setaria faberii), johnsongrass (Sorghum halepense), lambsquarters (Chenopodium album), morningglory (Ipomoea coccinea), nutsedge, yellow (yellow nutsedge, Cyperus esculentus), pigweed (Amaranthus retroflexus), ragweed (common ragweed, Ambrosia elatior), soybean (Glycine max), barnyardgrass (Echinochloa crus-galli), oilseed rape (Brassica napus), waterhemp (common waterhemp, Amaranthus rudis) and velvetleaf (Abutilon theophrasti) were planted into a blend of loam soil and sand and treated preemergence with test chemicals formulated in a non-phytotoxic solvent mixture which included a surfactant.
(§2) At the same time, plants selected from these crop and weed species and also Kochia (Kochia scoparia), oat, wild (wild oat, Avena fatua), and chickweed (common chickweed, Stellaria media) were planted in pots containing Sunshine Redi-Earth® planting medium comprising spaghnum peat moss, vermiculite, starter nutrients and dolomitic limestone and treated with postemergence applications of test chemicals formulated in the same manner. Plants ranged in height from 2 to 18 cm (1- to 4-leaf stage) for postemergence treatments. Treated plants and controls were maintained in a greenhouse for 13 to 15 d, after which time all species were compared to controls and visually evaluated. Plant response ratings, summarized in Table C, are based on a scale of 0 to 100 where 0 is no effect and 100 is complete control. A dash (-) response means no test result.

[2] = test system: waterhemp (common waterhemp, Amaranthus rudis); test: Test C postemergence; details: scale 0 to 100, 0 no effect, 100 complete control
From the text: as §1, §2

[3] = test system: johnsongrass (Sorghum halepense); test: Test C postemergence; details: scale 0 to 100, 0 no effect, 100 complete control
From the text: as §1, §2

Kochia (Kochia scoparia) = test: Test C postemergence; details: scale 0 to 100, 0 no effect, 100 complete control
From the text: as §1, §2

[4] = test system: crabgrass, large (large crabgrass, Digitaria sanguinalis); test: Test C postemergence; details: scale 0 to 100, 0 no effect, 100 complete control
From the text: as §1, §2

[5] = test system: pigweed (Amaranthus retroflexus); test: Test C postemergence; details: scale 0 to 100, 0 no effect, 100 complete control
From the text: as §1, §2

[6] = test system: Galium (catchweed bedstraw, Galium aparine); test: Test C postemergence; details: scale 0 to 100, 0 no effect, 100 complete control
From the text: as §1, §2

soybean (Glycine max) = test: Test C postemergence; details: scale 0 to 100, 0 no effect, 100 complete control
From the text: as §1, §2

[7] = test system: oat, wild (wild oat, Avena fatua); test: Test C postemergence; details: scale 0 to 100, 0 no effect, 100 complete control
From the text: as §1, §2

[8] = test system: blackgrass (Alopecurus myosuroides); test: Test C postemergence; details: scale 0 to 100, 0 no effect, 100 complete control
From the text: as §1, §2

[9] = test system: chickweed (common chickweed, Stellaria media); test: Test C postemergence; details: scale 0 to 100, 0 no effect, 100 complete control
From the text: as §1, §2

corn (Zea mays) = test: Test C postemergence; details: scale 0 to 100, 0 no effect, 100 complete control
From the text: as §1, §2

[10] = test system: oilseed rape (Brassica napus); test: Test C postemergence; details: scale 0 to 100, 0 no effect, 100 complete control
From the text: as §1, §2

[11] = test system: ryegrass, Italian (Italian ryegrass, Lolium multiflorum); test: Test C postemergence; details: scale 0 to 100, 0 no effect, 100 complete control
From the text: as §1, §2

[12] = test system: velvetleaf (Abutilon theophrasti); test: Test C postemergence; details: scale 0 to 100, 0 no effect, 100 complete control
From the text: as §1, §2

[13] = test system: nutsedge, yellow (yellow nutsedge, Cyperus esculentus); test: Test C postemergence; details: scale 0 to 100, 0 no effect, 100 complete control
From the text: as §1, §2

[14] = test system: morningglory (Ipomoea coccinea); test: Test C postemergence; details: scale 0 to 100, 0 no effect, 100 complete control
From the text: as §1, §2

[15] = test system: green foxtail (Setaria viridis); test: Test A preemergence; details: for Foxtail, Green plant response rating: 31 g ai/ha, 0 to 100 scale where 0 is no effect and 100 is complete control; for Plant response rating, Foxtail, Green: 125 g ai/ha, 0 to 100 scale (0 no effect, 100 complete control)
Procedure, shortened: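 Treatment is preemergence as a directed soil spray after planting, or postemergence at the one- to two-leaf stage, with test chemical in a non-phytotoxic solvent mixture plus surfactant. Plants stay in the greenhouse about 10 d before visual injury scoring on a 0 to 100 scale versus untreated controls.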

## CN1CC(c2ccc(F)c(F)c2)C(C(=O)Nc2ccccc2S(C)(=O)=O)C1=O (stereo not drawn) [Compound 640]
[1]; 31 g ai/ha
  Plant response rating, Foxtail, Giant: 0
[1]; 62 g ai/ha
  Plant response rating, Foxtail, Giant: 0
[1]; 125 g ai/ha
  Plant response rating, Foxtail, Giant: 10
[1]; 250 g ai/ha
  Plant response rating, Foxtail, Giant: 65
[2]; 31 g ai/ha
  Plant response rating, Waterhemp: 5
[2]; 62 g ai/ha
  Plant response rating, Waterhemp: 20
[2]; 125 g ai/ha
  Plant response rating, Waterhemp: 10
[2]; 250 g ai/ha
  Plant response rating, Waterhemp: 30
[3]; 31 g ai/ha
  Plant response rating, Johnsongrass: 0
[3]; 62 g ai/ha
  Plant response rating, Johnsongrass: 0
[3]; 125 g ai/ha
  Plant response rating, Johnsongrass: 0
[3]; 250 g ai/ha
  Plant response rating, Johnsongrass: 0
Kochia (Kochia scoparia); 31 g ai/ha
  Plant response rating, Kochia: 20
Kochia (Kochia scoparia); 62 g ai/ha
  Plant response rating, Kochia: 30
Kochia (Kochia scoparia); 125 g ai/ha
  Plant response rating, Kochia: 30
Kochia (Kochia scoparia); 250 g ai/ha
  Plant response rating, Kochia: 75
[4]; 31 g ai/ha
  Plant response rating, Crabgrass, Large: 0
[4]; 62 g ai/ha
  Plant response rating, Crabgrass, Large: 0
[4]; 125 g ai/ha
  Plant response rating, Crabgrass, Large: 10
[4]; 250 g ai/ha
  Plant response rating, Crabgrass, Large: 35
[5]; 31 g ai/ha
  Plant response rating, Pigweed: 10
[5]; 62 g ai/ha
  Plant response rating, Pigweed: 35
[5]; 125 g ai/ha
  Plant response rating, Pigweed: 35
[5]; 250 g ai/ha
  Plant response rating, Pigweed: 55
[6]; 31 g ai/ha
  Plant response rating, Galium: 50
[6]; 62 g ai/ha
  Plant response rating, Galium: 55
[6]; 125 g ai/ha
  Plant response rating, Galium: 60
[6]; 250 g ai/ha
  Plant response rating, Galium: 65
Soybean (Glycine max); 31 g ai/ha
  Plant response rating, Soybean: 65
Soybean (Glycine max); 62 g ai/ha
  Plant response rating, Soybean: 10
Soybean (Glycine max); 125 g ai/ha
  Plant response rating, Soybean: 10
Soybean (Glycine max); 250 g ai/ha
  Plant response rating, Soybean: 5
[7]; 31 g ai/ha
  Plant response rating, Oat, Wild: 0
[7]; 62 g ai/ha
  Plant response rating, Oat, Wild: 0
[7]; 125 g ai/ha
  Plant response rating, Oat, Wild: 0
[7]; 250 g ai/ha
  Plant response rating, Oat, Wild: 5
[8]; 31 g ai/ha
  Plant response rating, Blackgrass: 0
[8]; 62 g ai/ha
  Plant response rating, Blackgrass: 0
[8]; 125 g ai/ha
  Plant response rating, Blackgrass: 0
[8]; 250 g ai/ha
  Plant response rating, Blackgrass: 0
[9]; 31 g ai/ha
  Plant response rating, Chickweed: 25
[9]; 62 g ai/ha
  Plant response rating, Chickweed: 0
[9]; 125 g ai/ha
  Plant response rating, Chickweed: 60
[9]; 250 g ai/ha
  Plant response rating, Chickweed: 35
Corn (Zea mays); 31 g ai/ha
  Plant response rating, Corn: 0
Corn (Zea mays); 62 g ai/ha
  Plant response rating, Corn: 0
Corn (Zea mays); 125 g ai/ha
  Plant response rating, Corn: 0
Corn (Zea mays); 250 g ai/ha
  Plant response rating, Corn: 0
[10]; 31 g ai/ha
  Plant response rating, Oilseed Rape: 20
[10]; 62 g ai/ha
  Plant response rating, Oilseed Rape: 15
[10]; 125 g ai/ha
  Plant response rating, Oilseed Rape: 50
[10]; 250 g ai/ha
  Plant response rating, Oilseed Rape: 60
[11]; 31 g ai/ha
  Plant response rating, Ryegrass, Italian: 0
[11]; 62 g ai/ha
  Plant response rating, Ryegrass, Italian: 0
[11]; 125 g ai/ha
  Plant response rating, Ryegrass, Italian: 0
[11]; 250 g ai/ha
  Plant response rating, Ryegrass, Italian: 5
[12]; 31 g ai/ha
  Plant response rating, Velvetleaf: 5
[12]; 62 g ai/ha
  Plant response rating, Velvetleaf: 70
[12]; 125 g ai/ha
  Plant response rating, Velvetleaf: 25
[12]; 250 g ai/ha
  Plant response rating, Velvetleaf: 30
[13]; 31 g ai/ha
  Plant response rating, Nutsedge, Yellow: 0
[13]; 62 g ai/ha
  Plant response rating, Nutsedge, Yellow: 0
[13]; 125 g ai/ha
  Plant response rating, Nutsedge, Yellow: 0
[13]; 250 g ai/ha
  Plant response rating, Nutsedge, Yellow: 10
[14]; 31 g ai/ha
  Plant response rating, Morningglory: 35
[14]; 62 g ai/ha
  Plant response rating, Morningglory: 40
[14]; 125 g ai/ha
  Plant response rating, Morningglory: 55
[14]; 250 g ai/ha
  Plant response rating, Morningglory: 40

## CN1C[C@H](c2csc3c2CCC(F)(F)C3)[C@@H](C(=O)Nc2cccc(F)c2F)C1=O (racemic) [Compound 1369]
[15]
  Foxtail, Green plant response rating: 20
  Plant response rating, Foxtail, Green: 100

## CN1C[C@H](c2csc3c2CCC(F)(F)C3)[C@@H](C(=O)Nc2ccc(F)c(F)c2F)C1=O (racemic) [Compound 1368]
[15]
  Foxtail, Green plant response rating: 0
  Plant response rating, Foxtail, Green: 100
